Measured values as given in PubChem BioAssay (NCI).
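96-well plates; 48 h exposure; 5 concentrations. Endpoints by linear interpolation between flanking doses. Not reached: highest tested concentration assigned. TGI: total growth inhibition.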

Assays:
Experiment in all cases: NCI-60 cell line screen, 48 h
[1] = tested on: MALME-3M melanoma
[2] = tested on: SF-268 CNS
[3] = tested on: LOX IMVI melanoma
[4] = tested on: OVCAR-5 ovarian
[5] = tested on: SNB-19 CNS
[6] = tested on: HCC-2998 colon
[7] = tested on: SR leukemia
[8] = tested on: SF-295 CNS
[9] = tested on: OVCAR-8 ovarian
[10] = tested on: A549 NSCLC
[11] = tested on: CAKI-1 renal
[12] = tested on: SNB-75 CNS
[13] = tested on: ACHN renal
[14] = tested on: SN12C renal
[15] = tested on: NCI-H226 lung
[16] = tested on: OVCAR-4 ovarian
[17] = tested on: HCT-116 colon
[18] = tested on: SW-620 colon
[19] = tested on: HOP-18 NSCLC
[20] = tested on: SK-MEL-5 melanoma
[21] = tested on: UACC-62 melanoma
[22] = tested on: M19-MEL melanoma
[23] = tested on: MOLT-4 leukemia
[24] = tested on: COLO 205 colon
[25] = tested on: OVCAR-3 ovarian
[26] = tested on: DMS 114 small cell lung
[27] = tested on: NCI-H23 lung
[28] = tested on: CCRF-CEM leukemia
[29] = tested on: SK-OV-3 ovarian
[30] = tested on: M14 melanoma
[31] = tested on: SNB-78 CNS
[32] = tested on: IGROV1 ovarian
[33] = tested on: LXFL 529 NSCLC
[34] = tested on: K-562 leukemia
[35] = tested on: UO-31 renal
[36] = tested on: HT29 colon
[37] = tested on: U251 CNS
[38] = tested on: DMS 273 small cell lung
[39] = tested on: HOP-92 NSCLC
[40] = tested on: HOP-62 NSCLC
[41] = tested on: NCI-H522 lung
[42] = tested on: TK-10 renal
[43] = tested on: SF-539 CNS
[44] = tested on: KM12 colon
[45] = tested on: UACC-257 melanoma
[46] = tested on: 786-0 renal
[47] = tested on: DLD-1 colon
[48] = tested on: A498 renal
[49] = tested on: KM20L2 colon
[50] = tested on: EKVX NSCLC
[51] = tested on: RXF 393 renal
[52] = tested on: NCI-H460 lung
[53] = tested on: HL-60(TB) leukemia
[54] = tested on: RPMI-8226 leukemia
[55] = tested on: HCT-15 colon
[56] = tested on: SK-MEL-2 melanoma
[57] = tested on: SK-MEL-28 melanoma

Fc1ccc(F)c(C2SCc3nc4ccccc4n32)c1 (centres undefined)
TGI [1]: > 100 µM | TGI [2]: > 100 µM | TGI [3]: > 100 µM | TGI [4]: > 100 µM | TGI [5]: > 100 µM | TGI [6]: > 100 µM | TGI [7]: > 100 µM | TGI [8]: > 100 µM | TGI [9]: > 100 µM | TGI [10]: > 100 µM | TGI [11]: > 100 µM | TGI [12]: > 100 µM | TGI [13]: > 100 µM | TGI [14]: > 100 µM | TGI [15]: > 100 µM | TGI [16]: > 100 µM | TGI [17]: > 100 µM | TGI [18]: > 100 µM | TGI [19]: > 100 µM | TGI [20]: 46.6 µM | TGI [21]: > 100 µM | TGI [22]: > 100 µM | TGI [23]: 91.6 µM | TGI [24]: > 100 µM | TGI [25]: > 100 µM | TGI [26]: 68.8 µM | TGI [27]: > 100 µM | TGI [28]: > 100 µM | TGI [29]: > 100 µM | TGI [30]: > 100 µM | TGI [31]: > 100 µM | TGI [32]: > 100 µM | TGI [33]: > 100 µM | TGI [34]: > 100 µM | TGI [35]: > 100 µM | TGI [36]: > 100 µM | TGI [37]: > 100 µM | TGI [38]: 64.3 µM | TGI [39]: > 100 µM | TGI [40]: > 100 µM | TGI [41]: > 100 µM | TGI [42]: > 100 µM | TGI [43]: > 100 µM | TGI [44]: > 100 µM | TGI [45]: > 100 µM | TGI [46]: > 100 µM | TGI [47]: > 100 µM | TGI [48]: > 100 µM | TGI [49]: > 100 µM | TGI [50]: > 100 µM | TGI [51]: > 100 µM | TGI [52]: > 100 µM | TGI [53]: 53.9 µM | TGI [54]: > 100 µM | TGI [55]: > 100 µM

NC(=O)C12C3C4C1C1C2C3C41C(N)=O (centres undefined)
TGI [2]: > 100 µM | TGI [3]: > 100 µM | TGI [4]: > 100 µM | TGI [5]: > 100 µM | TGI [6]: > 100 µM | TGI [8]: > 100 µM | TGI [9]: > 100 µM | TGI [10]: > 100 µM | TGI [11]: > 100 µM | TGI [12]: > 100 µM | TGI [13]: > 100 µM | TGI [14]: > 100 µM | TGI [15]: > 100 µM | TGI [16]: > 100 µM | TGI [17]: > 100 µM | TGI [18]: > 100 µM | TGI [19]: > 100 µM | TGI [20]: > 100 µM | TGI [21]: > 100 µM | TGI [22]: > 100 µM | TGI [23]: > 100 µM | TGI [24]: > 100 µM | TGI [25]: > 100 µM | TGI [56]: > 100 µM | TGI [26]: > 100 µM | TGI [27]: > 100 µM | TGI [28]: > 100 µM | TGI [29]: > 100 µM | TGI [30]: > 100 µM | TGI [32]: > 100 µM | TGI [33]: > 100 µM | TGI [34]: > 100 µM | TGI [35]: > 100 µM | TGI [36]: > 100 µM | TGI [37]: > 100 µM | TGI [38]: > 100 µM | TGI [39]: > 100 µM | TGI [40]: > 100 µM | TGI [41]: > 100 µM | TGI [42]: > 100 µM | TGI [43]: > 100 µM | TGI [44]: > 100 µM | TGI [45]: > 100 µM | TGI [46]: > 100 µM | TGI [47]: > 100 µM | TGI [57]: > 100 µM | TGI [48]: > 100 µM | TGI [49]: > 100 µM | TGI [50]: > 100 µM | TGI [51]: > 100 µM | TGI [52]: > 100 µM | TGI [53]: > 100 µM | TGI [54]: > 100 µM | TGI [55]: > 100 µM
